Test results taken from ChEMBL document CHEMBL1136414, “Structure-activity relationship of linear peptide Bu-His-DPhe-Arg-Trp-Gly-NH(2) at the human melanocortin-1 and -4 receptors: histidine substitution” (Bioorg Med Chem Lett, 2003).

What was measured:
[1] = target: T1, Melanocyte-stimulating hormone receptor (Homo sapiens, UniProt Q01726); experiment: Agonist activity against human melanocortin receptor hMC1R; assay type: functional
Target sequence in this assay (Q01726 whole entry): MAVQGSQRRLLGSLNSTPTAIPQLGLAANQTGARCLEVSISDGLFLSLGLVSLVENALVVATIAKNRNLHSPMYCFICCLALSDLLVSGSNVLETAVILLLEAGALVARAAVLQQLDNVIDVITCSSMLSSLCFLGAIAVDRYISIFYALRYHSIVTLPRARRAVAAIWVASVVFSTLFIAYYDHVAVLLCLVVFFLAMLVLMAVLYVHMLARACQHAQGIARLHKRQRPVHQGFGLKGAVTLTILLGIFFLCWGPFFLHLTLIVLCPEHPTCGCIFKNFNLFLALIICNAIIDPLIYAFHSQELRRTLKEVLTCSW

[2] = target: T2, Melanocortin receptor 4 (Homo sapiens, UniProt P32245); experiment: Agonist activity against human melanocortin receptor hMC4R; assay type: functional
T2 sequence (P32245 whole entry): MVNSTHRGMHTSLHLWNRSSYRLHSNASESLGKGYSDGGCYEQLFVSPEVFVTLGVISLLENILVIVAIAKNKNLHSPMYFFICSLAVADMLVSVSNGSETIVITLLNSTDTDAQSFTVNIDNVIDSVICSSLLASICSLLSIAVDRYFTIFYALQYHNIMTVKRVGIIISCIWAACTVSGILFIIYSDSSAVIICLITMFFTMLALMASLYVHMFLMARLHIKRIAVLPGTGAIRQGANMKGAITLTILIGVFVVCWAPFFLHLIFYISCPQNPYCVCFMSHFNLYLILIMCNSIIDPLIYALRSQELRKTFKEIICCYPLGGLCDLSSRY

[3] = target: T3, Melanocortin receptor 5 (Homo sapiens, UniProt P33032); experiment: Agonist activity against human melanocortin receptor hMC5R measured as percent cAMP accumulation at the concentration of 50 uM; assay type: functional
T3 sequence (P33032 whole entry): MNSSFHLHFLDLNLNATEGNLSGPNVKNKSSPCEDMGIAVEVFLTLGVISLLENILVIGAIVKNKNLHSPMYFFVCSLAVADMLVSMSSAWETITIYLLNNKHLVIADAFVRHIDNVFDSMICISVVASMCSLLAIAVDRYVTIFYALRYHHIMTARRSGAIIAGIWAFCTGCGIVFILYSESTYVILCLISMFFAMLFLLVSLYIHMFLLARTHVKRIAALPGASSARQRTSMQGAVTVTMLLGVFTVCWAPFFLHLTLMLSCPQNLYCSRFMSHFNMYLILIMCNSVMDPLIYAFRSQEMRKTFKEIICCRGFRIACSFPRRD

[4] = target: T4, Melanocortin receptor 3 (Homo sapiens, UniProt P41968); experiment: Agonist activity against human melanocortin receptor hMC3R measured as percent cAMP accumulation at the concentration of 50 uM; assay type: functional
T4 sequence (P41968 whole entry): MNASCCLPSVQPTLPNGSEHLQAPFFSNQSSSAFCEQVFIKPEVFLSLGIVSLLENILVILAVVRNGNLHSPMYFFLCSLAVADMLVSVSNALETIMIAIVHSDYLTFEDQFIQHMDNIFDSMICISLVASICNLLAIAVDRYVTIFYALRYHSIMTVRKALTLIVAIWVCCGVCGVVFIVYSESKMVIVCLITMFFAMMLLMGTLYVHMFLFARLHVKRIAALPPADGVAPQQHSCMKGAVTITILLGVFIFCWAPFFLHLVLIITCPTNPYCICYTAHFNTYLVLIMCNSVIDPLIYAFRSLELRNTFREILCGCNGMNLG

[5] = target: T2, Melanocortin receptor 4; experiment: Percent inhibition of human melanocortin receptor hMC4R at the concentration of 50 uM
[6] = target: T2, Melanocortin receptor 4; experiment: Binding affinity towards human melanocortin receptor hMC4R by using radioligand NDP-MSH
[7] = target: T1, Melanocyte-stimulating hormone receptor; experiment: (§1) Agonist activity against human melanocortin receptor hMC1R at 50% maximum cAMP accumulation; assay type: functional
Target sequence in this assay (Q01726 whole entry): as the sequence (Q01726 whole entry) above

[8] = target: T1, Melanocyte-stimulating hormone receptor; experiment: Binding affinity towards human melanocortin receptor hMC1R by using radioligand NDP-MSH
Target sequence in this assay (Q01726 whole entry): as above

[9] = target: T4, Melanocortin receptor 3; experiment: Binding affinity towards human melanocortin receptor hMC3R by using radioligand NDP-MSH
[10] = target: T3, Melanocortin receptor 5; experiment: Binding affinity towards human melanocortin receptor hMC5R by using radioligand NDP-MSH
[11] = target: T2, Melanocortin receptor 4; experiment: Binding affinity towards human melanocortin receptor hMC4R by using radioligand NDP-MSH; not determined
[12] = target: T1, Melanocyte-stimulating hormone receptor; experiment: Percent inhibition of human melanocortin receptor hMC1R at the concentration of 50 uM
Target sequence in this assay (Q01726 whole entry, looked up): as the sequence (Q01726 whole entry) above

[13] = target: T1, Melanocyte-stimulating hormone receptor; experiment: as §1; assay type: functional; remark: listed apart in the source
Target sequence in this assay (Q01726 whole entry, looked up): as the sequence (Q01726 whole entry) above

EC50 [1] | EC50 [2] | SMILES | other results
1710 nM |  | CCCCC(=O)NC1(C(=O)NC(Cc2ccccc2)C(=O)N[C@@H](CCCN=C(N)N)C(=O)N[C@@H](Cc2c[nH]c3ccccc23)C(=O)NCC(N)=O)CCc2cccc(Br)c2C1 (single isomer, unassigned) | inhibition [5]: 0%
2910 nM |  | CCCCC(=O)NC1(C(=O)N[C@H](Cc2ccccc2)C(=O)N[C@@H](CCCN=C(N)N)C(=O)N[C@@H](Cc2c[nH]c3ccccc23)C(=O)NCC(N)=O)CCc2cccc(Br)c2C1 (single isomer, unassigned; isomer 2) | inhibition [5]: 0%
940 nM | 2 nM | CCCCC(=O)NC1(C(=O)N[C@H](Cc2ccccc2)C(=O)N[C@@H](CCCNC(=N)N)C(=O)N[C@@H](Cc2c[nH]c3ccccc23)C(=O)NCC(N)=O)CCc2c(cccc2N(C)C)C1 (single isomer, unassigned; isomer 1) | IC50 [6]: 25 nM; EC50 [7]: 940 nM; IC50 [8]: 25500 nM
4630 nM |  | CCCCC(=O)NC1(C(=O)NC(Cc2ccccc2)C(=O)N[C@@H](CCCN=C(N)N)C(=O)N[C@@H](Cc2c[nH]c3ccccc23)C(=O)NCC(N)=O)CCc2cc(Br)ccc2C1 (single isomer, unassigned; form 2) [listing 2 of 2 here] | 
1950 nM | 1000 nM | CCCCC(=O)N[C@]1(C(=O)N[C@H](Cc2ccccc2)C(=O)N[C@@H](CCCN=C(N)N)C(=O)N[C@@H](Cc2c[nH]c3ccccc23)C(=O)NCC(N)=O)CCc2ccccc2C1 (stereo in doubt; form 2) | 
830 nM | 45 nM | CCCCC(=O)N[C@]1(C(=O)N[C@H](Cc2ccccc2)C(=O)N[C@@H](CCCN=C(N)N)C(=O)N[C@@H](Cc2c[nH]c3ccccc23)C(=O)NCC(N)=O)CCc2ccccc2C1 (stereo in doubt; form 1) | 
1850 nM | 16 nM | CCCCC(=O)NC1(C(=O)N[C@H](Cc2ccccc2)C(=O)N[C@@H](CCCNC(=N)N)C(=O)N[C@@H](Cc2c[nH]c3ccccc23)C(=O)NCC(N)=O)CCc2c(cccc2N(C)C)C1 (single isomer, unassigned; isomer 2) | IC50 [6]: 150 nM; EC50 [7]: 1850 nM; IC50 [8]: 21700 nM
 | 33 nM | CCCCC(=O)NC1(C(=O)NC(Cc2ccccc2)C(=O)N[C@@H](CCCN=C(N)N)C(=O)N[C@@H](Cc2c[nH]c3ccccc23)C(=O)NCC(N)=O)CCc2c(Br)cccc2C1 (single isomer, unassigned) | IC50 [6]: 200 nM; inhibition [12]: 75%; Accumulation [3]: 0%; IC50 [8]: 4900 nM; Accumulation [4]: 0%; Accumulation [13]: 75%
3380 nM |  | CCCCC(=O)NC1(C(=O)NC(Cc2ccccc2)C(=O)N[C@@H](CCCN=C(N)N)C(=O)N[C@@H](Cc2c[nH]c3ccccc23)C(=O)NCC(N)=O)CCc2cc(Br)ccc2C1 (single isomer, unassigned; form 1) [listing 2 of 2 here] | 

Second part, the compound before the results:

SMILES | EC50 [1] | EC50 [2] | other results
CCCCC(=O)NC1(C(=O)NC(Cc2ccccc2)C(=O)N[C@@H](CCCNC(=N)N)C(=O)N[C@@H](Cc2c[nH]c3ccccc23)C(=O)NCC(N)=O)CCc2c(CC)cccc2C1 (single isomer, unassigned) | 195 nM | 24 nM | 
CCCC(=O)N[C@@H](Cc1c[nH]cn1)C(=O)N[C@H](Cc1ccccc1)C(=O)N[C@@H](CCCN=C(N)N)C(=O)N[C@@H](Cc1c[nH]c2ccccc12)C(=O)NCC(N)=O |  |  | Accumulation [3]: 0%; Accumulation [4]: 0%
CCCCC(=O)NC1(C(=O)NC(Cc2ccccc2)C(=O)N[C@@H](CCCNC(=N)N)C(=O)N[C@@H](Cc2c[nH]c3ccccc23)C(=O)NCC(N)=O)CCc2c(Cl)cccc2C1 (single isomer, unassigned) | 1400 nM | 600 nM | 
CCCCC(=O)NC1(C(=O)NC(Cc2ccccc2)C(=O)N[C@@H](CCCNC(=N)N)C(=O)N[C@@H](Cc2c[nH]c3ccccc23)C(=O)NCC(N)=O)CCc2c(cccc2OC(C)C)C1 (single isomer, unassigned) | 680 nM | 130 nM | 
CCCCC(=O)NC1(C(=O)NC(Cc2ccccc2)C(=O)N[C@@H](CCCNC(=N)N)C(=O)N[C@@H](Cc2c[nH]c3ccccc23)C(=O)NCC(N)=O)CCc2c(cccc2C(C)C)C1 (single isomer, unassigned) | 295 nM | 13 nM | 
CCCCC(=O)NC1(C(=O)N[C@H](Cc2ccccc2)C(=O)N[C@@H](CCCNC(=N)N)C(=O)N[C@@H](Cc2c[nH]c3ccccc23)C(=O)NCC(N)=O)CCc2c(Cl)cccc2C1 (single isomer, unassigned; isomer 2) | 890 nM | 130 nM | 
CCCC(=O)N[C@@H](C)C(=O)NC(Cc1ccccc1)C(=O)N[C@@H](CCCN=C(N)N)C(=O)N[C@@H](Cc1c[nH]c2ccccc12)C(=O)NCC(N)=O (single isomer, unassigned) | 230 nM | 180 nM | 
CCCCC(=O)NC1(C(=O)N[C@H](Cc2ccccc2)C(=O)N[C@@H](CCCN=C(N)N)C(=O)N[C@@H](Cc2c[nH]c3ccccc23)C(=O)NCC(N)=O)CCc2c(cccc2N(C)C)C1 (single isomer, unassigned; isomer 1) |  |  | Accumulation [3]: 0%; Accumulation [4]: 0%
CCCC(=O)N[C@@]1(C(=O)N[C@H](Cc2ccccc2)C(=O)N[C@@H](CCCN=C(N)N)C(=O)N[C@@H](Cc2c[nH]c3ccccc23)C(=O)NCC(N)=O)CCc2ccccc2C1 (stereo in doubt; form 2) | 5640 nM | 2940 nM | 
CCCC(=O)N[C@@]1(C(=O)N[C@H](Cc2ccccc2)C(=O)N[C@@H](CCCN=C(N)N)C(=O)N[C@@H](Cc2c[nH]c3ccccc23)C(=O)NCC(N)=O)CCc2ccccc2C1 (stereo in doubt; form 1) | 4380 nM | 290 nM | 
CCCCC(=O)NC1(C(=O)NC(Cc2ccccc2)C(=O)N[C@@H](CCCN=C(N)N)C(=O)N[C@@H](Cc2c[nH]c3ccccc23)C(=O)NCC(N)=O)CCc2cc(Br)ccc2C1 (single isomer, unassigned; form 2) [listing 1 of 2 here] |  |  | inhibition [5]: 50%
CCCCC(=O)NC1(C(=O)N[C@H](Cc2ccccc2)C(=O)N[C@@H](CCCN=C(N)N)C(=O)N[C@@H](Cc2c[nH]c3ccccc23)C(=O)NCC(N)=O)CCc2c(cccc2N(C)C)C1 (single isomer, unassigned; isomer 2) |  |  | Accumulation [3]: 24%; Accumulation [4]: 0%
CCCCC(=O)NC1(C(=O)NC(Cc2ccccc2)C(=O)N[C@@H](CCCNC(=N)N)C(=O)N[C@@H](Cc2c[nH]c3ccccc23)C(=O)NCC(N)=O)CCc2c(C)cccc2C1 (single isomer, unassigned) | 1220 nM | 35 nM | 
CCCC(=O)N[C@@H](Cc1cnc[nH]1)C(=O)N[C@H](Cc1ccccc1)C(=O)N[C@@H](CCCNC(=N)N)C(=O)N[C@@H](Cc1c[nH]c2ccccc12)C(=O)NCC(N)=O | 10 nM | 20 nM | IC50 [6]: 150 nM; IC50 [9]: 4000 nM; EC50 [7]: 10 nM; IC50 [8]: 580 nM; IC50 [10]: 13300 nM
CCCCC(=O)NC1(C(=O)N[C@H](Cc2ccccc2)C(=O)N[C@@H](CCCNC(=N)N)C(=O)N[C@@H](Cc2c[nH]c3ccccc23)C(=O)NCC(N)=O)CCc2c(Br)cccc2C1 (single isomer, unassigned; isomer 2) |  | 35 nM | IC50 [11]: 105 nM; IC50 [8]: 5100 nM
CCCCC(=O)NC1(C(=O)NC(Cc2ccccc2)C(=O)N[C@@H](CCCNC(=N)N)C(=O)N[C@@H](Cc2c[nH]c3ccccc23)C(=O)NCC(N)=O)CCc2c(cccc2OCC)C1 (single isomer, unassigned) | 990 nM | 120 nM | 
CCCCC(=O)NC1(C(=O)NC(Cc2ccccc2)C(=O)N[C@@H](CCCN=C(N)N)C(=O)N[C@@H](Cc2c[nH]c3ccccc23)C(=O)NCC(N)=O)CCc2ccc(Br)cc2C1 (single isomer, unassigned) |  |  | inhibition [12]: 0%; inhibition [5]: 40%
CCCCC(=O)NC1(C(=O)NC(Cc2ccccc2)C(=O)N[C@@H](CCCNC(=N)N)C(=O)N[C@@H](Cc2c[nH]c3ccccc23)C(=O)NCC(N)=O)CCc2c(cccc2OC)C1 (single isomer, unassigned) | 1480 nM | 90 nM | 
CCCCC(=O)NC1(C(=O)NC(Cc2ccccc2)C(=O)N[C@@H](CCCN=C(N)N)C(=O)N[C@@H](Cc2c[nH]c3ccccc23)C(=O)NCC(N)=O)CCc2cc(Br)ccc2C1 (single isomer, unassigned; form 1) [listing 1 of 2 here] |  |  | inhibition [5]: 60%
CCCCC(=O)NC1(C(=O)N[C@H](Cc2ccccc2)C(=O)N[C@@H](CCCN=C(N)N)C(=O)N[C@@H](Cc2c[nH]c3ccccc23)C(=O)NCC(N)=O)CCc2c(Br)cccc2C1 (single isomer, unassigned; isomer 2) |  |  | inhibition [12]: 50%; Accumulation [3]: 32%; Accumulation [4]: 0%
